Results on 28 molecules are retold here after patent US11957680B2, “Pyruvate kinase activators for use in treating blood disorders” (Agios Pharmaceuticals, Inc., priority 2017, dated 2024).

In assay [1] the target is T1, wild type PKR (Homo sapiens, UniProt P30613). The assay is described as follows: PKR (wild type) enzyme AC50 assay, LDH/NADH-coupled, absorbance at 340 nm. In kind it is biochemical. The following applies: for AC50: Table 2, enzyme assay, read-out: PKR WT AC50; for EC50 / PKR WT: Table 4, AC50, enzyme assay; for EC50: read-out: PKR WT. The essentials: (§1)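 Enzyme amount (40-400 ng/well) and substrate levels vary by PKR variant. The coupled read-out uses LDH (0.5 units) consuming NADH, tracked at 340 nm at room temperature after ADP initiation, following a one-hour compound preincubation.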
T1 sequence (P30613 whole entry): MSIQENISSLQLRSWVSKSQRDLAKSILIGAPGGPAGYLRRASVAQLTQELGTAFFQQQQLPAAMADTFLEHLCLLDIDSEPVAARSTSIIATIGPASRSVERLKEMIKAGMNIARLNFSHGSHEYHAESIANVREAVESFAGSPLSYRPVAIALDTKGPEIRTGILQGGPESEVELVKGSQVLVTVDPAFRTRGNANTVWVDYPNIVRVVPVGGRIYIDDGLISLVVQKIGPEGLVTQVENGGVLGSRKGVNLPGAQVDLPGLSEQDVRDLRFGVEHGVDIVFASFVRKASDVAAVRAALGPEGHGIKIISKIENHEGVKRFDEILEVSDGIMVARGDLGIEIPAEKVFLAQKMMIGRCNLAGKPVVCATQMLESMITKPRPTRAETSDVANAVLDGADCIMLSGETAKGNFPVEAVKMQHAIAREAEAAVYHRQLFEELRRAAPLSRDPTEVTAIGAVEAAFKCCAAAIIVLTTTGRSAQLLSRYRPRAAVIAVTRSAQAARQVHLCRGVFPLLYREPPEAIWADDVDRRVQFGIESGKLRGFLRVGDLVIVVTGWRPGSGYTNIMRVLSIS

For assay [2], the target named is PKR R510Q (Homo sapiens, UniProt P30613, R510Q). The assay is described as follows: PKR mutant assay (R510Q), AC50, LDH/NADH-coupled, absorbance at 340 nm. In kind it is biochemical. The following applies: for AC50: read-out: PK R510Q AC50; for EC50: read-out: PK R510Q. The gist of the method: as §1
Sequence of PKR R510Q (P30613 whole entry R510Q): as the sequence (P30613 whole entry) above, with R510Q counted along it
In assay [3] the target is PKR K410E (Homo sapiens, UniProt P30613, K410E). The assay is described as follows: PKR mutant assay (K410E), AC50, LDH/NADH-coupled, absorbance at 340 nm. The assay is classed as biochemical. The following applies: for AC50: Table 2, enzyme assay; for EC50: Table 4, AC50, enzyme assay. The essentials:
as §1

Assay [4] deals with T1, wild type PKR. Kind of assay: Cell based ATP assay in purified red blood cells (Cell-Titer-Glo). Set-up: endogenous in cells; host or cells: purified red blood cells from healthy volunteers. Conditions: overnight at 37° C., ATP levels; for AC50: Table 2, RBCs; for EC50 / Cell based ATP assay: Table 4, AC50, RBCs. The essentials: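 RBCs from healthy human donors' K2EDTA blood were leukocyte-depleted by filtration and resuspended in AGAM (PBS, 1% glucose, adenine, mannitol). Cells at 1×10^7 cells/mL were incubated overnight at 37 °C with serially diluted compound at 0.1% DMSO, and ATP was read by Cell-Titer-Glo luminescence.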

As a reminder, the AC50 is the concentration at which the activity in the assay is half-maximal.

Sequence of PKR K410E (P30613 whole entry K410E): as the sequence (P30613 whole entry) above, with K410E counted along it

Turning to `Cn1c2nc(S(C)(=O)=O)sc2c2cnn(Cc3cccc4[nH]ncc34)c(=O)c21` [Compound 92], the AC50 in assay [1] is less than 300 nM; in assay [2] (Table 2, enzyme assay), 301 to 800 nM; in assay [3], 301 to 800 nM; in assay [4] it was not above 1000 nM.

Turning to `Cn1c2nc(Cc3cc[nH]n3)sc2c2cnn(Cc3ccc4oc(=O)[nH]c4n3)c(=O)c21` [Compound 386], the EC50 in assay [1] was less than 300 nM; in assay [2] (Table 4, AC50, enzyme assay), less than 300 nM; in assay [3] it was less than 300 nM; in assay [4], not above 1000 nM.

Regarding `Cn1c2nc(Cc3ccc(C#N)cc3)sc2c2cnn(Cc3cccc4[nH]ncc34)c(=O)c21` [Compound 93], the AC50 in assay [1] is more than 800 nM; in assay [2] (Table 2, enzyme assay), more than 800 nM; in assay [3], more than 800 nM; in assay [4] it was more than 1000 nM.

Turning to `Cn1c2nc([S+](C)[O-])sc2c2cnn(Cc3cccc4c3CCNC4)c(=O)c21` (stereo not shown) [Compound 80], the AC50 was more than 800 nM in assay [1]; less than 300 nM in assay [2] (Table 2, enzyme assay); more than 800 nM in assay [3]; more than 1000 nM in assay [4].

Turning to `Cn1c2nc([S+](C)[O-])sc2c2cnn(Cc3cnc(N)nc3)c(=O)c21` (stereo not shown) [Compound 94], the results for the AC50 in assay [1], in assay [3] and in assay [4] were more than 800 nM, more than 800 nM and more than 1000 nM, respectively. The “PK R510Q AC50” value in assay [2] (Table 2, enzyme assay) was “No Fit”.

`COc1cccc(Cn2ncc3c4sc(Cc5ccc(C)cc5)nc4n(C)c3c2=O)c1` [Compound 32]: the AC50 in assay [1] was less than 300 nM; in assay [2] (Table 2, enzyme assay) it was less than 300 nM; in assay [3] it was less than 300 nM; in assay [4] it was not above 1000 nM.

With `Cn1c2nc(C(C(N)=O)c3cc[nH]n3)sc2c2cnn(Cc3cccc4[nH]ncc34)c(=O)c21` (stereo not shown) [Compound 212], the EC50 is less than 300 nM in assay [1]; less than 300 nM in assay [2] (Table 4, AC50, enzyme assay); less than 300 nM in assay [3]; not above 1000 nM in assay [4].

`Cn1c2nc(-n3cnc(CS(=O)(=O)c4ccccc4)c3)sc2c2cnn(Cc3cccc4[nH]ncc34)c(=O)c21` [Compound 187]: the “PKR WT” value in assay [1] is on record as “No Fit”. Also, in assay [2] (Table 4, AC50, enzyme assay), the “PK R510Q” value is reported as “No Fit”. Further, the EC50 in assay [3] was more than 800 nM. For the same molecule, the “Cell based ATP assay” value in assay [4] is given as “No Fit”.

Consider `C=Cc1nc2c(s1)c1cnn(Cc3cccc4[nH]ncc34)c(=O)c1n2C` [Compound 104], for which the AC50 in assay [1] is less than 300 nM; in assay [2] (Table 2, enzyme assay), less than 300 nM; in assay [3], more than 800 nM; in assay [4], more than 1000 nM.

Turning to `Cn1ncc2cc(Cn3ncc4c5sc(Cc6cc[nH]n6)nc5n(C)c4c3=O)ccc21` [Compound 224], the EC50 in assay [1] is less than 300 nM; in assay [2] (Table 4, AC50, enzyme assay) it was less than 300 nM; in assay [3] it was less than 300 nM; in assay [4] it was not above 1000 nM.

Turning to `Cn1c2nc(Cc3cccc(O)c3)sc2c2cnn(Cc3cccc4[nH]ncc34)c(=O)c21` [Compound 89], the AC50 is less than 300 nM in assay [1]; less than 300 nM in assay [2] (Table 2, enzyme assay); less than 300 nM in assay [3]; not above 1000 nM in assay [4].

For the molecule `Cn1c2nc([S+](C)[O-])sc2c2cnn(Cc3csc(N)n3)c(=O)c21` (stereo not shown) [Compound 83], the AC50 in assay [1] is less than 300 nM; in assay [2] (Table 2, enzyme assay), less than 300 nM; in assay [3], less than 300 nM; in assay [4], not above 1000 nM.

Regarding `Cn1c2nc([S+](C)[O-])sc2c2cnn(Cc3ccc4ccccc4n3)c(=O)c21` (stereo not shown) [Compound 102], the AC50 in assay [1] is less than 300 nM; in assay [2] (Table 2, enzyme assay), less than 300 nM; in assay [3], less than 300 nM; in assay [4] it was not above 1000 nM.

For `Cn1c2nc(Cc3ccc4cn[nH]c4c3)sc2c2cnn(Cc3cccc4[nH]ncc34)c(=O)c21` [Compound 156], the concentration at half-maximal activity (AC50) in assay [1] was 301 to 800 nM; in assay [2] (Table 2, enzyme assay), less than 300 nM; in assay [3], less than 300 nM; in assay [4], not above 1000 nM.

On to `Cn1c2nc([S+](C)[O-])sc2c2cnn(Cc3cnc(N)s3)c(=O)c21` (stereo not shown) [Compound 101], for which the AC50 is more than 800 nM in assay [1]; more than 800 nM in assay [2] (Table 2, enzyme assay); more than 800 nM in assay [3]; more than 1000 nM in assay [4].

With `Cn1c2nc(Cc3cc[nH]n3)sc2c2cnn(CCc3cccc(N)n3)c(=O)c21` [Compound 385], the EC50 in assay [1] was less than 300 nM; in assay [2] (Table 4, AC50, enzyme assay), less than 300 nM; in assay [3], less than 300 nM; in assay [4], not above 1000 nM.

In the case of `CC(O)c1nc2c(s1)c1cnn(Cc3cccc4[nH]ncc34)c(=O)c1n2C` (stereo not shown) [Compound 106], the AC50 in assay [1] was less than 300 nM; in assay [2] (Table 2, enzyme assay) it was less than 300 nM; in assay [3] it was less than 300 nM; in assay [4] it was not above 1000 nM.

On to `CC(=O)c1cccc(CC(c2cc[nH]n2)c2nc3c(s2)c2cnn(Cc4cccc(C(C)=O)c4)c(=O)c2n3C)c1` (stereo not shown) [Compound 192], for which the EC50 is more than 800 nM in assay [1]; more than 800 nM in assay [2] (Table 4, AC50, enzyme assay); more than 800 nM in assay [3]; more than 1000 nM in assay [4].

As for `Cn1c2nc(CC(N)=O)sc2c2cnn(Cc3cccc4[nH]ncc34)c(=O)c21` [Compound 137], the AC50 in assay [1] was 301 to 800 nM; in assay [2] (Table 2, enzyme assay), less than 300 nM; in assay [3], less than 300 nM; in assay [4] it was more than 1000 nM.

Consider `O=c1c2c(cnn1Cc1ccccc1)c1sc(Cc3cc[nH]n3)nc1n2Cc1ccccc1` [Compound 407], for which the “PKR WT” value in assay [1] is listed as “No Fit”. For the same molecule, the EC50 was less than 300 nM in assay [2] (Table 4, AC50, enzyme assay) and more than 800 nM in assay [3]. For the same molecule, in assay [4], the “Cell based ATP assay” value is given as “No Fit”.

For `Cn1c2nc(Cc3ncsc3CO)sc2c2cnn(Cc3cccc4[nH]ncc34)c(=O)c21` [Compound 167], the AC50 in assay [1] is less than 300 nM; in assay [2] (Table 2, enzyme assay) it was less than 300 nM; in assay [3] it was less than 300 nM; in assay [4], not above 1000 nM.

`Cn1c2nc(Cc3ccc(O)cc3)sc2c2cnn(Cc3cccc4[nH]ncc34)c(=O)c21` [Compound 77]: the AC50 is less than 300 nM in assay [1]; less than 300 nM in assay [2] (Table 2, enzyme assay); less than 300 nM in assay [3]; not above 1000 nM in assay [4].

With `COc1cccc(Cn2ncc3c4scnc4n(C)c3c2=O)c1` [Compound 19], the AC50 is 301 to 800 nM in assay [1]; less than 300 nM in assay [2] (Table 2, enzyme assay); 301 to 800 nM in assay [3]; more than 1000 nM in assay [4].

In the case of `Cn1c2nc(Cc3cnn[nH]3)sc2c2cnn(Cc3cccc4[nH]ncc34)c(=O)c21` [Compound 217], the EC50 was less than 300 nM in assay [1]; less than 300 nM in assay [2] (Table 4, AC50, enzyme assay); less than 300 nM in assay [3]; not above 1000 nM in assay [4].

`CSc1nc2c(s1)c1cnn(Cc3cccc(C(C)(C)O)c3)c(=O)c1n2C` [Compound 85]: the AC50 in assay [1] is less than 300 nM; in assay [2] (Table 2, enzyme assay), less than 300 nM; in assay [3], 301 to 800 nM; in assay [4], not above 1000 nM.

As to `Cn1c2nc(Cc3ccc[nH]c3=O)sc2c2cnn(Cc3cccc4[nH]ncc34)c(=O)c21` [Compound 228], the EC50 in assay [1] was less than 300 nM; in assay [2] (Table 4, AC50, enzyme assay), less than 300 nM; in assay [3], less than 300 nM; in assay [4], not above 1000 nM.

Regarding `Cn1c2nc(Cc3ncsc3Br)sc2c2cnn(Cc3cccc4[nH]ncc34)c(=O)c21` [Compound 220], the EC50 was less than 300 nM in assay [1]; less than 300 nM in assay [2] (Table 4, AC50, enzyme assay); less than 300 nM in assay [3]; not above 1000 nM in assay [4].

In the case of `Cn1c2nc(Cc3csc(CO)n3)sc2c2cnn(Cc3cccc4[nH]ncc34)c(=O)c21` [Compound 168], the AC50 in assay [1] was less than 300 nM; in assay [2] (Table 2, enzyme assay) it was less than 300 nM; in assay [3] it was less than 300 nM; in assay [4], not above 1000 nM.
